Results on 1 molecule are retold here after US20260048151A1, “HEMICYANINE PUSH-PULL DYES BASED ON CHROMENE ELECTRON DONORS” (UNIVERSITY OF CONNECTICUT, priority 2022, published 2026).

Each structure is given as a SMILES string.

Data set [1] in a line: Absorption and emission spectra, fluorescence quantum efficiency in EtOH, PBS and lipid vesicles (MLV). It is filed as physicochemical. As for the experimental part: FIGS. 2A-2C are plots showing absorption and emission spectra of 2a, in comparison with ElectroFluor630, in various solvent environments: MLV, EtOH, and PBS. Multilamellar lipid vesicle suspension (MLV) was prepared by sonicating soybean phosphatidylcholine in PBS buffer (2 mg/mL) to mimic the cell membrane environment. The emission spectra in ethanol and PBS buffer were scaled 10 and 20 times respectively relative to the emission spectra in MLV. Excitation wavelength is 580 nm for emission spectra.
All chemicals were purchased from commercial sources (Sigma Aldrich, Acros, TCI America, Combi-Blocks, and others) and used without further purification. Column chromatography was generally performed on COMBIFLASH NextGen 300 using normal phase silica columns except that for some final dye products amine silica columns were used. Thin layer chromatography (TLC) was carried out on EM 60 F-254 plastic TLC plates. NMR spectra were recorded on Varian 400 MHz, 500 MHz, and 800 MHz instruments at the UConn Heath Structural Biology Facility. All spectra are referenced internally to TMS or residual solvent signals. Electrospray ionization (ESI) high-resolution mass spectra (HRMS) were obtained on a QStar Elite (AB Sciex) at the Department of Chemistry, University of Connecticut. UV/Vis absorption spectra were recorded on a UV-Visible spectrophotometer (Shimadzu, UV-1601PC) and fluorescence emission spectra on a Horiba Fluorolog spectrofluorometer (Horiba, Inc., Edison, NJ). Fluorescence quantum yield for dyes was determined by a relative method using Rhodamine 6G (excited at 480 nm, FQY=0.95 in EtOH) or cresyl violet (excited at 580 nm, FQY=0.54 in MeOH) as the references.
Absorbance and the fluorescence properties of the new VSDs were determined. The absorption and emission spectra for 2a, together with ElectroFluor630, in aqueous buffer (PBS), ethanol, and when intercalated in the membrane of lipid vesicles are shown in FIGS. 2A-C. […] This is particularly advantageous for fluorescence imaging because background fluorescence from unbound dye is negligible. Another characteristic of the hemicyanine VSDs that is preserved by 2a in FIGS. 2A-C is the large Stokes shift between the excitation and emission maxima. 125 nm for the membrane-bound dye. This is also a benefit for fluorescence detection and imaging, as the fluorescence can be readily filtered from scattered exciting light. The broad wavelength window afforded by the spectra is also an important benefit for the design of experiments with multiple fluorescent sensors. For comparative purposes, certain VSDs are shown below.
As expected, the spectra are largely insensitive to alkyl substitution. Table 1 also includes data for ElectroFluor630 (aka Di-4-ANEQ (F) PTEA) for comparison. The absorption maxima of 2a in ethanol (EtOH), aqueous buffer (PBS) and when bound to lipid membranes (multilamellar vesicles, MLV) are red shifted by 77 nm, 63 nm and 63 nm, respectively, relative to ElectroFluor630, which is isostructural to 2a. […] The absorption and emission spectra of 2a, 2b, and 2c are all shifted to the red by 50-65 nm relative to ElectroFluor630.

Data set [2] in a line: Voltage sensitivity on voltage-clamped hemispherical lipid bilayer. The following applies: long pass emission filter. An excerpt: It is known that optimal voltage sensitivity can be obtained by measuring the compounds on a voltage-clamped hemispherical bilayer apparatus. The apparatus can include a patch-clamp amplifier, such as a HEKA EPC-8 patch-clamp amplifier. Measurements can be obtained by stepping the membrane potential between two different potentials for a set time lapse. such as, for example, −110 and −60 mV every 10 ms.
Testing VSDs in a voltage-clamped hemispherical lipid bilayer allows one to determine the sensitivity of the VSDs as a function of excitation wavelength. This system has a Teflon tube filled with KCl and is immersed in a KCl solution in a cuvette. A lipid bubble is blown at the tip of the tube and spontaneously forms a bilayer membrane. The VSD to be tested is introduced on one side of the bilayer, usually in the cuvette. Electrodes in the tube and in the cuvette allow the imposition of a voltage across the membrane and a tungsten lamp coupled to a monochromator allows excitation wavelength dependence of the fluorescence response to voltage steps to be determined. This screening approach has allows for the comparison of the efficacy of newly developed VSDs in a well-controlled, consistent manner and to also determine excitation and emission wavelengths with optimal.
Voltage sensitivities of 2a as a function of voltage is shown in FIG. 3A for excitation at 730 nm and 570 nm. The voltage response is linear over the range of −100 mV to +100 mV; 570 nm is slightly to the blue of the isosbestic point, accounting for the weak but inverted sensitivity at this wavelength. […] This opposite polarity at the blue and red edges underlies the ability to use electrochromic hemicyanine dyes for dual-wavelength ratio imaging. The precise location of the isosbestic point in the excitation wavelength depends on the emission filter used because the emission spectrum is also voltage dependent for hemicyanine dyes.
The magnitude and wavelengths of the optimal voltage sensitivities of all the VSDs on the voltage-clamped hemispherical bilayer are included in the third column of Table 1.

On to `CCCCCCN(CCCCCC)c1ccc2c(c1)OCC(/C=C/c1c(F)c[n+](CCC[N+](CC)(CC)CC)c3ccccc13)=C2.[Br-].[Br-]` [2c], for which the absorption maximum was determined as 696 nm in data set [1] (in EtOH), 599 nm in data set [1] (in MLV (multilamellar lipid vesicles)) and 597 nm in data set [1] (in PBS). Further, in data set [1] (in lipid vesicle suspensions), the “Fluorescence quantum efficiency (FQE)” value is listed as 0.10. This molecule came in with an emission maximum in data set [1] (membrane-bound (MLV)) of 734 nm. Also, in data set [2], the “Ex (excitation wavelength of optimal voltage sensitivity)” value is 730 nm. Moreover, the “Voltage Sensitivity ΔF/F per 100 mV” value in data set [2] (magnitude at optimal Ex/Em) was 12%.
